System: SK-Mel-28 human melanoma cells
Assay: Expression of modified GD3 after incubation with modified precursors (flow cytometry, CE-MS)
Format: cell-based
Conditions: 1 mg/ml precursor concentration; in agreement with flow cytometry
Description: SK-Mel-28 human melanoma cells normally expressing GD3 were incubated with modified sialic acid precursors. The modified sialic acid precursors used were N-acylated Mannosamines(“ManNAc”), including: N-propionyl mannosamine (“ManNPr”), N-butyril mannosamine (“ManNBu”), and N-benzoyl mannosamine (“ManNBz”).
The incorporation and metabolism of the surface GD3 antigen were also investigated. […] Modified GD3 on SK-Mel-28 cells in vitro was still found 10 days after removal of precursors from the growth medium, when two populations of antigens, unmodified and modified GD3 were detected by mAb R24 and respective antiserum.
The relative quantity of modified and unmodified GD3 expressed on the SK-Mel-28 was analysed by capillary electrophoresis-mass spectroscopy (“CE-MS”). The glycolipids extracted from cells grown in various concentrations of ManNBu were separated by capillary electrophoresis and negative charged glycolipids were detected. GD3 was the dominant ganglioside found in SK-Mel-28 cells. When ManNBu was added to the medium, the modified GD3 was biosynthesized and expressed.

`CCCC(=O)N[C@@H]1C(O)O[C@H](CO)[C@@H](O)[C@@H]1O` (stereo partly shown) [ManNBu, N-butyril mannosamine] was tested, and the “Relative expression of modified GD3 by CE-MS” value was “well expressed”.

— US20040009195A1, “Modified sialic acid vaccines” (priority 2003, published 2004)
